Data: ChEMBL document CHEMBL3507680, “University of Dundee, Gates Library screen for HepG2 cell viability”

Experiment: Human HepG2 cell viability assay in 384 well format
Assay type: toxicity, cell-based
Design: dose 125 nL, time 70.5 hour; concentration not given beside the values
Settings: HepG2 cells, read-out: Inhibition

| SMILES | cytotoxicity at 70.5 h [%] |
| --- | --- |
| CNc1cncc(C2CCN(C(=O)c3cnco3)CC2)n1 | 9.47 |
| CCc1cc(C(=O)N2CCCC(c3cc(=O)nc4n3CCC4)C2)no1 (configuration not stated) | -6.36 |
| Cc1cc(C)n(CCNCc2cc(-c3ccc(Cl)cc3)c[nH]c2=O)n1 | -3.88 |
| Cc1ccc(-c2cc(N)c(=O)n(C(C)C(=O)NC(C)C)n2)o1 (configuration not stated) | -11.9 |
| Cc1cc2c(cc1C)OC1(C=C2)CCN(CC(=O)N2CCOCC2)CC1 | -8.77 |
| Cc1sc(C(=O)NC(C)C)cc1S(=O)(=O)N(C)C | -5.26 |
| COCCNC(=O)Cn1c(-c2ccco2)cc2cccnc21 | -8.41 |
| COCCNC(=O)C(C)n1nc(-c2ccco2)cc(N)c1=O (configuration not stated) | 23.7 |
| COCCCNC(=O)C(C)n1nc(-c2ccco2)cc(N)c1=O (configuration not stated) | -6.27 |
| CCCNC(=O)C(C)n1nc(-c2ccc(C)o2)cc(N)c1=O (configuration not stated) | -1.77 |
| CCC(=O)N1CCC(c2nc(N3CCOCC3)ncc2S(C)(=O)=O)CC1 | -9.6 |
| CC(C)(C)C(=O)N1CCC(c2noc(C3CCC(=O)N3)n2)CC1 (configuration not stated) | -6.7 |
| Cc1cc(Nc2nc(C)cc(C)n2)cc(C2CCCN2)n1 (configuration not stated) | -7.57 |
| CS(=O)(=O)N[C@@H]1CN(Cc2ccccc2)C[C@H]1O | -5.89 |
| Cc1cc(N(C)C)nc(C2COCCN2Cc2cc(C)on2)n1 (configuration not stated) | -7.49 |
| Cc1noc(C)c1CC(=O)N1CCC(c2ccn3nccc3n2)CC1 | 0.22 |
| Cc1cn[nH]c1C1COCCN1C(=O)c1ccc2c(c1)CCCC2 (configuration not stated) | -3.65 |
| Cc1cc(NC2CC3(CCN(Cc4csc(C)n4)C3)C2)ncn1 (configuration not stated) | -9.59 |
| Cc1cc(N2CCCC(O)(CN(C)C(=O)CCN)C2)c2cnccc2n1 (configuration not stated) | 26.9 |
| COc1ncc(CN2C[C@@H]3C[C@@H](O)CN3C[C@@H]2Cc2ccccc2)cn1 | 18.8 |
| CC(C)C(=O)N1CCCC(Cc2ccccn2)C1 (configuration not stated) | -1.35 |
| Cc1noc(C)c1-c1nc(C2CCCN(CCC(N)=O)C2)ccc1CO (configuration not stated) | -6.81 |
| CO[C@H]1CN(C(=O)c2cccc(C)n2)CC[C@@]12CCCO2 | -6.22 |

| SMILES | cytotoxicity at 70.5 h [%] |
| --- | --- |
| CN(C)CC1(O)CCN(C(=O)Cc2ccc3ccccc3c2)C1 (configuration not stated) | -1.7 |
| Cc1nc(C)c(C(=O)N2CCc3nnc(C4CCCN4C)n3CC2)s1 (configuration not stated) | -3.4 |
| Cc1cccc(Nc2ccc(C3CCN(Cc4ncc[nH]4)CC3)nc2)n1 | 0.422 |
| Cc1cnn(CC(=O)N2CCC(c3ccn4nccc4n3)CC2)c1 | -2.27 |
| CN(CC1(O)CCN(c2ccnc3ccncc23)CC1)C(=O)CCN | -6.66 |
| Cc1n[nH]c(C)c1-c1nccnc1CC1CCNC1 (configuration not stated) | -2.8 |
| CC(=O)N1CCOC(c2ccnc(N(C)C)n2)C1 (configuration not stated) | 1.91 |
| Cc1nccn1[C@@H]1CC[C@@H](NC(=O)Cn2c(C)nc3ccccc32)[C@H]1O | 0.7 |
| CN1CCC(Cc2cncc(-c3ccccc3C(=O)O)n2)C1 (configuration not stated) | -6.47 |
| O=C(Cn1ccnc1)N1C[C@@H]2CC[C@H](Oc3ccc(Cl)cc3)[C@@H]2C1 | 0.299 |
| COc1ccc(CN(Cc2cn(C)nc2C)CC2CCCO2)c(OC)c1 (configuration not stated) | -2.41 |
| COCCN1C(=O)CO[C@H]2CN(Cc3cccc(OC)c3F)C[C@@H]21 | -4.24 |
| O=C(COc1cccc(F)c1)N1CCCCC1c1ccn2ccnc2n1 (configuration not stated) | -9.3 |
| O=C(CCc1cccnc1)N1CCCCC1c1ccn2ccnc2n1 (configuration not stated) | -6.74 |
| Cc1cncc(C(=O)N[C@@H]2CC[C@@H](N3CCOCC3)[C@@H]2O)c1 | -8.5 |
| COc1ccc(CN2CC[C@H](NC(C)=O)[C@@H](O)CC2)c(F)c1 | -5.93 |
| CC(=O)N1CCCC1c1cccc(Cc2ccccc2Cl)n1 (configuration not stated) | 0.0226 |
| NC(=O)C1(CCCc2ccccn2)CCCN(CCO)C1 (configuration not stated) | -4.87 |
| CN(C)Cc1ccnc(C2CN(Cc3nccs3)CCO2)n1 (configuration not stated) | 1.69 |
| CC(=O)N1CCCC1c1cccc(Oc2ccccc2F)n1 (configuration not stated) | -4.13 |
| CN(C)Cc1ccnc(C2CN(Cc3c(F)cccc3F)CCO2)n1 (configuration not stated) | -6.34 |
| NC(=O)CN1CCCC(c2cncc(Nc3ncccn3)n2)C1 (configuration not stated) | -6.48 |
| O=C(COc1ccccc1F)N1CCCCC1c1ccn2ccnc2n1 (configuration not stated) | -11.7 |

| SMILES | cytotoxicity at 70.5 h [%] |
| --- | --- |
| CC(=O)NCC(=O)N1C[C@@H]2CC[C@H](Oc3ccccc3Cl)[C@@H]2C1 | 12.5 |
| CN(Cc1ccc(F)cc1)CC1(O)CCN(C(=O)c2ccn(C)n2)C1 (configuration not stated) | -6.54 |
| CC(=O)N1CCCC(c2ccnc(Nc3cnccn3)n2)C1 (configuration not stated) | -7.2 |
| Cc1nc(CCC(N)=O)cc(C2CCNCC2)n1 | 18.8 |
| Fc1ccc(Cc2cccc(C3CCN(C4CCOCC4)CC3)n2)cc1 | 0.432 |
| Cc1noc2nc(C3CCN(Cc4ccccn4)CC3)cc(C(F)F)c12 | -2.48 |
| Oc1nc(N2CCOCC2)nc2c1CCN(Cc1cccc(F)c1)CC2 | -5.57 |
| CC(C)n1ccnc1CN1CCOC(C)(C(=O)N2CCOCC2)C1 (configuration not stated) | -5.02 |
| NC(=O)C1(CCCc2ccccn2)CCCN(Cc2ccncc2)C1 (configuration not stated) | -2.02 |
| Oc1nc(N2CCOCC2)nc2c1CCN(Cc1ccc(F)cc1)CC2 | -2.02 |
| NC(=O)C1(CCCc2ccccn2)CCCN(Cc2ncc[nH]2)C1 (configuration not stated) | 1.81 |
| Cc1nc(NC2CCCC2)cc(C2CCN2C(=O)c2ccccn2)n1 (configuration not stated) | -4.92 |
| O=C(c1ccccc1F)N1CCOC(c2nc(-c3ncccn3)no2)C1 (configuration not stated) | -2.38 |
| Cc1ccc(C2CCCN(C(=O)c3cnn(C)c3)C2)nc1 (configuration not stated) | 24.3 |
| CNC(=O)C1(c2cnccn2)CCCN1C(=O)c1ccccc1 (configuration not stated) | 17.8 |
| O=C(c1cc(C2CCCCN2C(=O)C2CCC2)n[nH]1)N1CCOCC1 (configuration not stated) | 18.8 |
| CNC(=O)C1(c2cnccn2)CCCN1C(=O)c1cccc(F)c1 (configuration not stated) | 20.4 |
| O=C(c1cccnc1)N1CCOC(c2ccc(-c3cncnc3)cn2)C1 (configuration not stated) | -0.513 |
| O[C@@H]1CN(Cc2cccnc2)C[C@H]1Oc1ccccc1 | 0.823 |
| Cc1nn(C)c(C)c1CN1CCCC1c1nccc(CN(C)C)n1 (configuration not stated) | -0.0769 |
| O=C(c1cncs1)N1CCC(Cc2cnc3[nH]ccc3c2)CC1 | 15.3 |
| Cc1cc(C2CCN(C(=O)c3cnn(C)c3)CC2)ccn1 | -5.33 |
| CC(C)N1CCC(Cc2cncc(-c3cccc(C(=O)O)c3)n2)C1 (configuration not stated) | -5.63 |

| SMILES | cytotoxicity at 70.5 h [%] |
| --- | --- |
| CNC(=O)c1ccc(C2CN(C(=O)c3cnn(C)c3)CCO2)nc1 (configuration not stated) | -4.81 |
| Cn1cc(C(=O)N2CCCC(c3cc(O)n(C)n3)C2)cn1 (configuration not stated) | 7.43 |
| CC(=O)N1CCCCC1c1nc(C)cc(-c2ccccc2C(=O)O)n1 (configuration not stated) | -1.42 |
| CNC(=O)C1(c2cnccn2)CCCN1C(=O)c1ccccc1F (configuration not stated) | -3.62 |
| CNc1cccc(C2CCCN(C(=O)c3cnccn3)C2)n1 (configuration not stated) | -0.4 |
| O=C(c1cnccn1)N1CCC(Cc2cnc3[nH]ccc3c2)CC1 | -2.92 |
| Cc1ccccc1-c1cncc(C2CCN(C3CCOCC3)CC2)n1 | 1 |
| COc1ccc(CN(C)[C@@H]2CN(C(=O)c3cnn(C)c3)C[C@H]2O)cc1 | -6.51 |
| Cc1ccccc1-c1cncc(C2CCN(S(=O)(=O)N(C)C)CC2)n1 | -2.74 |
| COc1ccc(CN(C)[C@@H]2CN(C(=O)c3cccnc3)C[C@H]2O)cc1 | 2.56 |
| CCCN(C(=O)c1cnc(C)cn1)c1nc2c(s1)CCc1c-2cnn1C | 14.9 |
| O=C(c1cccs1)N1CCc2c(nc(N3CCCC3)[nH]c2=O)C1 | -0.974 |
| CC(C)C(=O)N1CCC(n2nc(-c3ccco3)ccc2=O)CC1 | 15.9 |
| CS(=O)(=O)c1snnc1C1CCCN(Cc2ccncc2)C1 (configuration not stated) | -11.9 |
| Cc1nc(O)c2nnn(C[C@H]3CCCN3C(=O)c3ccc(F)cc3)c2n1 | -4.53 |
| Cc1nc(O)c2nnn(C[C@H]3CCCN3C(=O)C3CCCC3)c2n1 | -4.22 |
| COc1ccc(CN(C)[C@@H]2CN(C(=O)c3cccn3C)C[C@H]2O)cc1 | 16.9 |
| CC(=O)N1CCC(c2nn(C)c3nccnc23)C1 (configuration not stated) | -5.3 |
| CN1CCCC(c2cccc(CCC(N)=O)n2)C1 (configuration not stated) | -3.92 |
| CNC(=O)C1(c2cnccn2)CCCN1C(=O)c1ccccn1 (configuration not stated) | 8.19 |
| CNC(=O)C1(c2cnccn2)CCCN1C(=O)c1cccc(C)n1 (configuration not stated) | -5.53 |
| CN1CCCC[C@@H]2[C@H]1[C@@H](c1ccccc1)CCN2C(=O)c1ccncc1 | -5.64 |
| CC(=O)N1CCN(c2cc(CCNC(=O)C(C)C)nc(C3CC3)n2)CC1 | -7.84 |

| SMILES | cytotoxicity at 70.5 h [%] |
| --- | --- |
| CN1CC(c2cc(O)nc(NCc3cccc(F)c3)n2)CC1=O (configuration not stated) | -10.4 |
| CCc1cc(C(=O)N2CCCC2c2nc(C)c(CC)c(O)n2)on1 (configuration not stated) | -6.15 |
| CN(CC(=O)NCc1cc2ccccc2o1)S(C)(=O)=O | -0.935 |
| CCN(CCC#N)Cn1ncc2cn(-c3ccccc3)nc2c1=O | -2.4 |
| COc1ccc(Cl)cc1NCC(=O)N(Cc1ccccn1)C1CC1 | -4.9 |
| COc1ccccc1OCCNC(=O)NCc1nc(C)no1 | -6.75 |
| COCCn1c(C(=O)NC(C(N)=O)C(C)C)cc2ccccc21 (configuration not stated) | -6.02 |
| O=C(NC(C1CC1)C1CC1)c1cccc[n+]1[O-] | -2.48 |
| COc1c(C2CCCN2c2ncnc3ccsc23)c(C)nn1C (configuration not stated) | -3.57 |
| CNS(=O)(=O)CC1CCCN1c1ccc(Br)cn1 (configuration not stated) | -0.632 |
| CN(CC(=O)NC(Cc1ccsc1)c1cccnc1)Cc1ccccn1 (configuration not stated) | 31.3 |
| Cc1c(CN2CCc3nc4sccc4c(=O)n3CC2)cnn1C | -6.65 |
| COc1ccc(C(C)N(C)Cc2c(C3CC3)[nH]c3ncccc23)cc1 (configuration not stated) | -3.9 |
| O=C(c1ccnc(C2CCNCC2)c1)N1CCCOCC1 | -1.42 |
| Fc1ccc(Cc2cnc(C3CCCN3)cn2)cc1 (configuration not stated) | 16.8 |
| O=S(=O)(c1ccc(Cl)cc1)N1CCc2nc(C3CCNCC3)ncc2C1 | -4.46 |
| Cc1noc(C)c1S(=O)(=O)N1CCc2nc(C3CCNCC3)ncc2C1 | -6.62 |
| CC(C)NC(=O)C1(CC2CC(c3ccc(F)cc3)=NO2)CCNCC1 (configuration not stated) | 24.3 |
| O=C(c1cc(C2CCCCN2CCO)n[nH]1)N1CCOCC1 (configuration not stated) | -9.24 |
| Cc1ccccc1OC1CCN(CC(=O)Nc2ccn(C)n2)CC1 | -7.79 |
